According to patent US9753018B2, “Selenium-containing compound” (Fisheries Research Agency, priority 2009, dated 2017):
pEC50: −log10 of the molar value.

Legend:
[1] = tested on: hemoglobin of rabbit red cells; test: Metmyoglobin formation inhibitory effect (hemoglobin collected from red cells); type: cell-based; details: 10, 25 or 50 nM in medium; hemoglobin solution incubated 37° C. 3 hours; versus control
Experimental: (§1) Preserved rabbit blood (Nippon Biotest Laboratories Inc.) was washed three times with a physiological saline solution (centrifuged at 2000 rpm and 4° C. for 5 min) to collect red cells. The red cells were suspended in a 4-fold amount of an RPMI medium (GIBCO (registered trademark) RPMI Medium 1640 manufactured by Invitrogen Co.), and cultured at 37° C. for 1 day using a carbon dioxide incubator. The selenium-containing compound was added to the culture solution so that the final concentration of the selenium-containing compound in the medium was 10, 25, or 50 nM (control: the selenium-containing compound was not added), and the cells were cultured. The red cells were then collected by centrifugation (2000×g, 4° C., 5 min), washed three times with a phosphate buffered saline (PBS), and collected by centrifugation. The red cells were hemolyzed by adding a 10 mM sodium phosphate buffer (pH: 7.2) to the red cell pellets, and centrifuged (15,000×g, 4° C., 10 min). The supernatant hemoglobin solution was then collected. The hemoglobin solution was diluted with a 100-fold amount of a 50 mM sodium phosphate buffer (pH: 6.8), and incubated at 37° C. for 3 hours. The absorbance ratio at 405 nm and 430 nm before and after incubation was measured, and the rate of metmyoglobin formation of the hemoglobin was calculated.

[2] = tested on: animal cells (ZE, YT, RTG-2, HUV-EC-C, AT2KY, TIG-S3, HEK293 cells); test: Cell proliferation-promoting effect on cultured cells (cell count by trypan blue staining); type: cell-based; details: 0-100 nM, 0-5 days, fish and human cell lines
Experimental: Specifically, Danio rerio embryo ZE cells (National Research Institute of Fisheries Science), Seriola quinqueradiata tail fin YT cells (National Research Institute of Fisheries Science), and Oncorhynchus mykiss gonad RTG-2 cells (ATCCCCL55) were cultured in an L-15 medium containing 2% fetal bovine serum (30,000 cells/ml).
Human vessel endothelial cells (human umbilical cord vein HUV-EC-C, Health Science Research Resources Bank (http://www.jhsf.or.jp)) were cultured in an MCDB131 medium containing 10% fetal bovine serum (10,000 cells/ml).
(§2) AT cells derived from the skin of a human patient with ataxia telangiectasia syndrome (AT2KY, Health Science Research Resources Bank, JCRB0316), human skin TIG-S3 cells (Health Science Research Resources Bank, JCRB0544), and human kidney HEK293 cells (Health Science Research Resources Bank, JCRB9068) were cultured in a DMEM medium containing 10% fetal bovine serum (15,000 cells/ml).
The selenium-containing compound was added to each culture medium (containing 2% serum) so that the final concentration was 0, 5, 10, 25, 50, or 100 nM. […] The cell count was determined by trypan blue staining after culturing the cells for 0, 1, 2, 3, 4, and 5 days.

[3] = tested on: human vessel endothelial cells; test: Cell proliferation rate (MTT) under hydrogen peroxide oxidative stress; type: cell-based; details: 5 mM, 1 hour pre-culture, then hydrogen peroxide 25 or 50 μM, 24 hours
Experimental: The in vivo antioxidant effect of the selenium-containing compound (chemical formula 4: oxidized dimer) according to one embodiment of the invention was determined using human vessel endothelial cells. Specifically, human vessel endothelial cells (10,000 cells/ml) were cultured on a 48-well plate using an MCDB131 medium containing 10% fetal bovine serum. The selenium-containing compound was added to the culture solution so that the final concentration was 5 mM (control: the selenium-containing compound was not added), and the cells were cultured at 37° C. for 1 hour under 5% carbon dioxide. After the addition of hydrogen peroxide to a final concentration of 25 or 50 μM, the cells were cultured at 37° C. for 24 hours under 5% carbon dioxide. The cell proliferation rate was then determined by the MTT assay. […] Specifically, it was confirmed that the selenium-containing compound (chemical formula 4: oxidized dimer) according to one embodiment of the invention has an in vivo antioxidant effect.

[4] = tested on: AT cells derived from the skin of a human patient with ataxia telangiectasia syndrome (AT2KY); test: Cell proliferation-promoting effect on AT cells (cell count by trypan blue staining); type: cell-based; details: 0-100 nM, 37° C., 0-5 days
Experimental: as §2
The selenium-containing compound was added to each culture medium (containing 2% serum) so that the final concentration was 0, 5, 10, 25, 50, or 100 nM. The Danio rerio embryo ZE cells were cultured at 25° C., the Seriola quinqueradiata tail fin YT cells were cultured at 20° C., and Oncorhynchus mykiss gonad RTG-2 cells were cultured at 15° C., and the human vessel endothelial cells, the AT cells derived from the skin of a human patient with ataxia telangiectasia syndrome, the human skin TIG-S3 cells, and the human kidney HEK293 cells were cultured at 37° C. The cell count was determined by trypan blue staining after culturing the cells for 0, 1, 2, 3, 4, and 5 days. […]

[5] = tested on: heme protein (myoglobin, hemoglobin); test: Heme iron binding effect (Se/Fe determination in heme proteins); parameters: species or system Thunnus orientalis, rabbit, Physeter macrocephalus; details: Se/Fe molar ratio of purified myoglobin and hemoglobin 0.003, 0.0003, 0.001
Experimental: Since it was confirmed that the selenium-containing compound has a heme protein auto-oxidation inhibitory effect (see “5. Metmyoglobin formation inhibitory effect of selenium-containing compound”), the binding capability of the selenium-containing compound with heme proteins was determined. Physeter macrocephalus (sperm whale) myoglobin available from SIGMA was used. 100 g of the dark muscle of Thunnus orientalis was mixed with a 5-fold amount of cold water, ground using a POLYTRON™ homogenizer, and centrifuged (6000×g, 10 min). The supernatant liquid was collected, and passed through a Sephacryl-100 column (16 mm×60 cm, manufactured by Pharmacia) that was equilibrated with a 0.05 M Tris-HCl buffer (pH: 7) containing 0.1 M salt to purify myoglobin derived from the dark muscle of Thunnus orientalis. […]
The selenium content in the Physeter macrocephalus myoglobin, the Thunnus orientalis myoglobin, the rabbit hemoglobin, and the Thunnus orientalis hemoglobin was measured. Selenium was detected from each sample. The elements contained in the Physeter macrocephalus myoglobin were measured by HPLC-ICP-MS.
The sample was wet-decomposed using nitric acid and hydrogen peroxide. Iron was quantitatively determined using an inductively coupled plasma atomic emission spectrometer (ICP-AES) (“ICPE-9000” manufactured by Shimadzu Corporation), and selenium was quantitatively determined by fluorometry. […]

[6] = Solubility (physico-chemical properties); type: physicochemical; details: solvents as named in the value
[7] = DPPH radical-scavenging ability (RS50); type: biochemical; details: for pEC50: concentration at which DPPH radical-scavenging rate was 50%, room temperature 30 minutes, absorbance 595 nm
Experimental: In order to evaluate the chemical antioxidant ability of the selenium-containing compound (chemical formula 4: oxidized dimer) according to one embodiment of the invention, the 1,1-diphenyl-2-picrylhydrazyl (DPPH) radical-scavenging ability was measured (Hideo Kimura, Kota Naganuma, Masato Kojima, Masakazu Komatsu, Takumi Onda, and Masao Tsuji, Yamanashi Prefectural Industrial Technology Center Report, No. 22, pp. 59-63 (2008)).
Specifically, a selenium-containing compound (selenium content: 1.62 μM) derived from the meat of Xiphias gladius, a 10 mM aqueous solution of a water-soluble vitamin E derivative (commercially available antioxidant) (Trolox (registered trademark) (CAS No.: 56305-04-5, manufactured by Roche)), and a 4.36 mM aqueous solution of (+)-ergothioneine (CAS No.: 497-30-3, manufactured by SIGMA) were repeatedly 2-fold diluted with purified water to prepare 2 to 128-fold diluted test solutions.
10 μl of the test solution and 100 μl of a DPPH solution (0.35 mM, prepared by dissolving 1.38 mg of DPPH in 5 ml of ethanol, and adding 5 ml of a 0.1 M phosphate buffer (pH: 6.8) to the solution) were mixed on a 96-well micro test plate (BD Falcon (registered trademark), #1722, manufactured by Becton, and Dickinson and Company), and reacted at room temperature for 30 minutes in a dark place. The absorbance at 595 nm was then measured. A case of using purified water (absorbance: 0.59) as the test solution was determined that the DPPH radical-scavenging rate was 0%, and a case of using 10 mM Trolox (registered trademark) (absorbance: 0.19) as the test solution was determined that the DPPH radical-scavenging rate was 100%. The concentration at which the DPPH radical-scavenging rate was 50% was determined to be the RS50 of each substance, and taken as the antioxidant ability.

rabbit red cells = test: Active oxygen level in red cells (hydroxyphenyl fluorescein); type: cell-based; details: HPF fluorescence; versus control
Experimental: as §1, with “The red cells were hemolyzed by adding a 10 mM sodium phosphate buffer (pH: 7.2) to the red cell pellets, and centrifuged (15,000×g, 4° C., 10 min). The supernatant hemoglobin solution was then collected. The hemoglobin solution was diluted with a 100-fold amount of a 50 mM sodium phosphate buffer (pH: 6.8), and incubated at 37° C. for 3 hours.” left out
The active oxygen level in the red cells was also measured using hydroxyphenyl fluorescein (HPF) (manufactured by Sekisui Medical Co., Ltd.). […] The fluorescence intensity (excitation wavelength: 490 nm, fluorescence wavelength: 515 nm) due to the reaction product with active oxygen was measured, and used as an index of the active oxygen level.

[8] = tested on: human vessel endothelial cells (human umbilical cord vein HUV-EC-C); test: MTT assay of human vessel endothelial cells cultured with selenium compounds; type: cell-based
Experimental: In order to clarify the intracellular function of the selenium-containing compound (chemical formula 4: oxidized dimer) according to one embodiment of the invention, the selenium-containing compound (chemical formula 4: oxidized dimer) according to one embodiment of the invention was administered to human vessel endothelial cells (human umbilical cord vein HUV-EC-C, Health Science Research Resources Bank (http://www.jhsf.or.jp)).
Specifically, human vessel endothelial cells (10,000 cells/ml) were cultured on a 48-well plate using an MCDB131 medium (manufactured by Invitrogen) containing 10% fetal bovine serum. […] The passage number was set to 5 or less in order to maintain the properties of the human vessel endothelial cells.
The mitochondrial respiratory chain activity was determined using an MTT assay kit (manufactured by Nacalai Tesque, Inc.). Specifically, after culturing the human vessel endothelial cells, an MTT solution was added to the culture solution in an amount 1/10th of that of the culture solution, and the cells were cultured at 37° C. for 3 hours under 5% carbon dioxide. An equal amount of isopropanol was then added to the culture solution to extract a formazan dye, and the absorbance at 595 nm was determined.

Q: For C[N+](C)(C)C(Cc1cnc([Se][Se]c2ncc(CC(C(=O)[O-])[N+](C)(C)C)[nH]2)[nH]1)C(=O)[O-] (stereo not shown) [chemical formula 4, 3,3′-(2,2′-diselanediylbis(1H-imidazole-5,2-diyl))bis(2-(trimethylammonio)propanoate)], which “rate of metmyoglobin formation of hemoglobin” value [1] is on record?
A: lower than that of the control

Q: What about the “cell proliferation (cell count)” value [2] of the same compound?
A: significantly promotes proliferation of animal cells

Q: And the “cellular proliferative potential under oxidative stress” value [3]?
A: improved

Q: And the “proliferation of AT cells” value [4]?
A: effect of promoting proliferation of the AT cells

Q: And the “binding to heme protein” value [5]?
A: bound to a heme protein

Q: And the Solubility ([6]; in acetone and acetonitrile)?
A: scarcely soluble in acetone and acetonitrile

Q: What about the Solubility ([6]; in water, ethanol and methanol) of the same compound?
A: Soluble in water, ethanol, and methanol;

Q: What about the “concentration giving radical-scavenging ability equal to L-(+)-ergothioneine, as fraction of ergothioneine concentration” value ([7]; DPPH, relative to L-(+)-ergothioneine) of the same compound?
A: 1/907

Q: And the “concentration giving radical-scavenging ability equal to Trolox, as fraction of Trolox concentration” value ([7]; DPPH, relative to water-soluble vitamin E derivative (Trolox))?
A: 1/456

Q: What about the “radical-scavenging ability higher than Trolox by a factor” value ([7]; chemical test, relative to Trolox) of the same compound?
A: about 500

Q: What about the pEC50 [7] of the same compound?
A: 5.72

Q: And the “active oxygen level in the red cells” value (rabbit red cells)?
A: lower than that of the control

Q: What about the “effect on cell proliferation (MTT)” value ([8]; 5 mM, 24 hours, 37° C.) of the same compound?
A: cell proliferation-promoting effect

Q: What about the “cytotoxicity compared with known selenium-containing compounds” value ([8]; versus selenious acid, selenocystine, selenomethionine) of the same compound?
A: very low cytotoxicity

Q: For C[Se]CC[C@H](N)C(=O)O [selenomethionine], which “effect on cell proliferation (MTT)” value ([8]; 5 nM added to culture medium) is on record?
A: cell death occurred

Q: With Cc1c(C)c2c(c(C)c1O)CCC(C)(C(=O)O)O2 (stereo not shown) [Trolox, 6-hydroxy-2,5,7,8-tetrametylchroman-2-carboxylic acid, reference compound] as the compound, how does the pEC50 [7] read?
A: 3.06

Q: With N[C@@H](C[Se][Se]C[C@H](N)C(=O)O)C(=O)O [selenocystine] as the compound, how does the “effect on cell proliferation (MTT)” value ([8]; 5 nM added to culture medium) read?
A: cell death occurred

Q: With C[N+](C)(C)[C@@H](Cc1c[nH]c(=S)[nH]1)C(=O)[O-] [L-(+)-ergothioneine, reference compound] as the compound, how does the pEC50 [7] read?
A: 2.77

Q: For O=[Se](O)O [sodium selenite], which “effect on cell proliferation (MTT)” value ([8]; 5 nM added to culture medium) is on record?
A: cell death occurred
